Data taken from patent publication US20260097111A1, “ETHER LIPIDS FOR HYPERACTIVATION OF MAMMALIAN DENDRITIC CELLS” (priority 2022, published 2026).

What was measured:
[1] = Serum chemokines and cytokines after SC injection; type: in vivo, mice; settings: SC injection; 2, 24 and 48 hours post injection; FIG. 49
Method: Lipid Preparation. […] Lipids were used for chemical injections or DC treatment within one hour of their preparation.
Subcutaneous (SC) Injection. Mice were placed under Isoflurane for a few min for anesthesia. Tubes containing the chemicals were vortexed for 30 seconds, then loaded with a 1 mL Sub-Q syringe.
Blood Collection. Mice were placed under Isoflurane for approximately 10 min for anesthesia. Using a 21G needle, mice were gently poked through the skin to the submandibular space to induce bleeding. Five-Six drops were collected in a mini collect K2EDTA blood collection tube. Blood samples were transported back to Corner Therapeutics lab on ice. The blood was then centrifuged at 1500×g for 5 min. After centrifugation, blood was collected into a 96-well round bottom plate and stored at −80° C.
Measurement of Serum Chemokines and Cytokines. Secreted cytokines were measured in the supernatant by cytokine bead array using the LEGENDplex™ Mouse Murine Proinflammatory Chemokine, Murine Cytokine Release Syndrome Legendplex and LEGENDplex™ Mouse Cytokine Panel 2 (Biolegend) according to the manufacturer's protocol. Data were collected using a Quanteon Novocyte flow cytometer and analyzed using the cloud-based software provided by Biolegend.

[2] = system: human moDCs; assay: Cell viability of human moDCs (CellTiter-Glo); type: cell-based; settings: human moDCs, R848 + lipid with MCC950; FIG. 3A
Method: After an overnight incubation, cells and culture supernatant were used for downstream readouts. One hundred and fifty microliters of cell supernatant were collected. Viability was measured using the CellTiter-Glo assay (Promega) which measures ATP content from cells. Fifty microliters of CellTiter-Glo reagent were added to 50 μL of cells. Luminescence was quantified on a SpectraMax m5e plate reader using an integration time of 500 milliseconds. Viability data were set relative to control conditions where cells were treated with only R848. To measure IL-1β secretion, the human IL-1β Lumit kit (Promega) was used to assay cell culture supernatant. Culture supernatant samples were incubated with enzyme-linked antibodies in a 384-well plate for 1 hour before addition of luminescent substrate. Samples were measured for luminescence with an integration time of 500 milliseconds. IL-1β concentrations of samples was determined by interpolation from a standard curve using 4-parameter logistic regression analysis. Studies were performed on three different human donor samples, and each biological condition was tested in triplicate. Graphed data represent means from each donor.
Measurement of Cytokine Secretion and Cell Viability. After an overnight incubation, cells and culture supernatant were used for downstream readouts. One hundred and fifty microliters of cell culture supernatant were collected. Viability was measured using the CellTiter-Glo assay (Promega) which measures ATP content from cells. Fifty microliters of CellTiter-Glo reagent were added to 50 μL of cells. Luminescence was quantified on a SpectraMax m5e plate reader using an integration time of 500 milliseconds. Viability data were set relative to control conditions where cells were treated with only R848. To measure IL-1β secretion, the human IL-1β Lumit kit (Promega) was used. […] Samples were measured for luminescence with an integration time of 500 milliseconds. IL-1β concentrations of samples was determined by interpolation from a standard curve using 4-parameter logistic regression analysis. […]

## CCCCCCCCCCCCCCCCCCCCCCOC[C@@H](O)COP(=O)(O)O [Compound 2, 1-docosyl-sn-glycerol-3-phosphate]
[1]
  cytokine and chemokine release in the serum: unable to induce any cytokine or chemokine release in the serum at any timepoint

## CC(C)(O)c1coc(S(=O)(=O)NC(=O)Nc2c3c(cc4c2CCC4)CCC3)c1 [MCC950, reference compound]
[2]
  cell viability: did not affect cell viability
